For the assay, the system named is sciatic nerve loose ligation in rats. In words: Bennett model (Chronic Constrictive Injury), thermal stimulation, paw-withdrawal latency. It is filed as in vivo. The note with it: rat; for Antihyperalgesic Effectiveness (% Effective): vs vehicle control; for anti-hyperalgesic effect against a thermal stimulation challenge: p.o., summary statement in words. The source says: Bennett Model (Chronic Constrictive Injury)
The Bennett model consists of sciatic nerve loose ligation in rats (Bennett G J and Xie Y K, A peripheral mononeuropathy in rat that produces disorders of pain sensation like those seen in man, Pain, 1988, 33, 87-107). Although the pharmacological profile of the spontaneous pain, protective posture and allodynia (minor) is similar to that of clinical neuropathic pain, the loose chronic ligature of sciatic nerve in the Bennett model causes greater thermal hyperalgesia than mechanical allodynia due to its inflammatory mechanism. The loose ligation causes the constriction/swelling followed by inflammation at the ligation site, a condition most commonly associated with various types of pain. The behavioral response to the ligature is one of hyperalgesia. Thus, anti-hyperalgesia reduces chronic signs of pain hypersensitivity. Therefore, the Bennett model is used to evaluate antinociceptive pain (Cui J G, Possible role of inflammatory mediators in tactile hypersensitivity in rat models of mononeuropathy, Pain, 2000, 88 (3), 239-248; Lovell J A, Changes in Spinal Serotonin Turnover Mediate Age-Related Differences in the Behavioral Manifestations of Peripheral Nerve Injury, Pharmacol. Biochem. Behav., 2000, 66 (4), 873-878; Yasuda T, The novel analgesic compound OT-7100[5-n-butyl-7-(3,4,5-trimethoxybenzoylamino)pyrazolo[1,5a]pyrimidine] attenuates mechanical nociceptive responses in animal models of acute and peripheral neuropathic hyperalgesia, J. Pharmacol., 1999, 79 (1), 65-73; Toda K, Antinociceptive effects of neurotropin in a rat model of painful peripheral mononeuropathy, Life Sci., 1998, 62 (10), 913-921; Munglani R, Neuropeptide changes persist in spinal cord despite resolving hyperalgesia in a rat model of mononeuropathy, Brain Res., 1996, 743, 1 (2), 102-108).
[…] The anti-hyperalgesia effect was assessed at 30, 60, and 90 minutes after the oral administration.
Rats (180-220 g body weight) were anesthetized (sodium pentobarbital, 40 mg/kg, ip) and an incision was made at the mid-thigh level to expose the common left sciatic nerve. Four ligatures spaced 1 mm apart were loosely tied around the sciatic nerve. The wound was then sutured. The rats received an i.m. injection of 50,000 IU Penicillin and were allowed to recover after this procedure. At least one week after the surgery, when the chronic state was fully established, rats were consecutively submitted to thermal stimulation of both the non-lesioned and the lesioned hind-paws. The apparatus (UgoBasil, Reference: 7371) consists of 6 individual Plexiglas boxes (17×13×13 cm) placed upon an elevated glass floor. The rat was placed in the box and allowed to habituate for 10 minutes. A mobile infrared radiant source (setting 20) was then focused under the non-lesioned and lesioned hind-paws and the paw-withdrawal latencies in seconds were automatically recorded. The test was performed in a blinded fashion. The increased latency in treated animals as compared to control animals (those receiving only vehicle) was expressed as % of effectiveness of the drug. Data were analyzed by comparing the treated lesion group with controls using unpaired Student's t-test.

Where [1] appears, read: 10 mg/kg p.o., 60 min after administration.
[2] abbreviates: 10 mg/kg p.o., 90 min after administration.
Where [3] appears, read: 30 mg/kg p.o., 30 min after administration.
Where [4] appears, read: 30 mg/kg p.o., 60 min after administration.
Setting [5] is: 30 mg/kg p.o., 90 min after administration.
[6] abbreviates: 300 mg/kg p.o., 30 min after administration.
Where [7] appears, read: 300 mg/kg p.o., 60 min after administration.
Where [8] appears, read: 300 mg/kg p.o., 90 min after administration.

Each structure is given as a SMILES string. Marks after values point to notes of the source that are not given here.

Consider `NC(=O)OC[C@@H](O)c1ccccc1Cl` [Formula (Ib)], for which the “anti-hyperalgesic effect against a thermal stimulation challenge” value is “anti-hyperalgesic effect”. In addition, the “Antihyperalgesic Effectiveness (% Effective)” value under setting [1] is reported as 79%. Under setting [2], the “Antihyperalgesic Effectiveness (% Effective)” value is listed as 53%. Moreover, the “Antihyperalgesic Effectiveness (% Effective)” value under setting [3] is given as 59%. Also, the “Antihyperalgesic Effectiveness (% Effective)” value under setting [4] came out at 109%. For the same molecule, under setting [5], the “Antihyperalgesic Effectiveness (% Effective)” value came to 107%. The “Antihyperalgesic Effectiveness (% Effective)” value under setting [6] is recorded as 43%. Besides, the “Antihyperalgesic Effectiveness (% Effective)” value under setting [7] was 314** %. Under setting [8], the “Antihyperalgesic Effectiveness (% Effective)” value turned out to be 151%.
For `NC(=O)OC[C@H](OC(N)=O)c1ccccc1Cl` [Formula (IIb)], the “anti-hyperalgesic effect against a thermal stimulation challenge” value is recorded as “anti-hyperalgesic effect”. The “Antihyperalgesic Effectiveness (% Effective)” value under setting [1] is 121%. Moreover, the “Antihyperalgesic Effectiveness (% Effective)” value under setting [2] came to 50%. Moreover, the “Antihyperalgesic Effectiveness (% Effective)” value under setting [3] was found to be 61%. In addition, the “Antihyperalgesic Effectiveness (% Effective)” value under setting [4] is listed as 318** %. The “Antihyperalgesic Effectiveness (% Effective)” value under setting [5] is 182** %. The “Antihyperalgesic Effectiveness (% Effective)” value under setting [6] worked out at 48%. Under setting [7], the “Antihyperalgesic Effectiveness (% Effective)” value was 198** %. The “Antihyperalgesic Effectiveness (% Effective)” value under setting [8] is 69%.
